# Values of other authors in US20250250278A2, “BRIARANE COMPOUNDS AND THEIR USE” (National Health Research Institutes, priority 2022, published 2025).
# Legend:
# [1] = test system: cyclooxygenase-2 (COX-2) mRNA; conditions: LPS-challenged murine macrophages
# [2] = test system: inducible nitric oxide synthase (iNOS) mRNA; conditions: LPS-challenged murine macrophages
# [3] = not given; remark: listed apart in the source
substance,measurement,setting,value
excavatolide B [ExcB],inhibition of mRNA expression of COX-2,[1],significantly inhibiting
same,solubility in water,,poor
same,inhibition of mRNA expression of iNOS,[2],significantly inhibiting
same,bioavailability,[3],low
